System: maize tissue pools (tassel, ear, leaf, root, stem)
Test: siRNA profiling microarray assay of mts-siRNA sequences across maize tissues
Conditions: for 01DKD2 V8-V9 Tassel relative signal value: germplasm 01DKD2, V8-V9 tassel; for 01DKD2 V10-V12 Tassel relative signal value: germplasm 01DKD2, V10-V12 tassel; for 01DKD2 Other Tissue relative signal value: germplasm 01DKD2, combined signals from other tissue; for LH244 V8-V9 Tassel relative signal value: germplasm LH244, V8-V9 tassel; for LH244 V10-V12 Tassel relative signal value: germplasm LH244, V10-V12 tassel; for LH244 Other Tissue relative signal value: germplasm LH244, combined signals from other tissue
Method: A siRNA profiling microarray assay was performed using μParaflo® Microfluidics chips provided by LC Sciences LLC (Houston, Tex., USA) with 1,200 sequences selected from the thousands of mts-siRNA sequences identified from the differential bioinformatic analysis. The microarray chips contained triplicate probes of the complementary sequence for each of the 1,200 mts-siRNA sequences. Total RNA was purified from 26 maize tissue pools (duplicate or triplicate tissue pools) from either LH244 (ATCC deposit number PTA-1173) or 01DKD2 (I294213) (ATCC deposit number PTA-7859) inbred plants. Each of the 26 RNA samples were hybridized with the microarray chips that contain probes for the 1,200 mts-siRNA. Hybridization images were collected using a GenePix® 4000B laser scanner (Molecular Devices, Sunnyvale, Calif.) and digitized using Array-Pro® Analyzer image analysis software (Media Cybernetics, Rockville, Md.). Relative signal values were derived by background subtraction and normalization. Differentially expressed signals were determined by t-test with p<0.05. From the microarray analysis, about 500 mts-siRNA from the 1,200 were identified as being highly tassel-specific.
Selected mts-siRNA sequences aligning to one of the six cDNA sequences were used for further microarray analysis to determine differential expression across maize tissues. Microarray analysis for mts-siRNA sequences of normalized signal values for V8-V9 tassel, V10-V12 tassel, or combined signals from the other tissue for maize germplasm LH244 and 01DKD2 is presented in Tables 3-10. […] Signal value results are measured as relative signal values and standard error (p<0.05) is represented by (STDR). […] The mts-siRNA sequence corresponds to the sense or antisense strand of the corresponding mts-siRNA target sequence in the cDNA sequence. The mts-siRNA sequence may have a single nucleotide, a two nucleotide, or a three nucleotide mismatch with the aligned portion of the cDNA sequence, and the mts-siRNA sequence may align to the sense strand or antisense strand of the cDNA sequence. The mts-siRNA sequences provided here are found across different maize germplasms.

Row | Substance | 01DKD2 V8-V9 Tassel relative signal value | 01DKD2 V10-V12 Tassel relative signal value | 01DKD2 Other Tissue relative signal value | LH244 V8-V9 Tassel relative signal value | LH244 V10-V12 Tassel relative signal value | LH244 Other Tissue relative signal value
1 | SEQ ID NO: 63: mts-siRNA sequence aligning to cDNA SEQ ID NO: 21 (TAGATCACTCGGGTCGCCACA; expressed or natural sequence) | 14.5 | 18 | 1.5 | 34.5 | 11.7 | 3.2
2 | SEQ ID NO: 58: mts-siRNA sequence aligning to cDNA SEQ ID NO: 20 (CGAGGTACCAACTAACATCGGT; expressed or natural sequence) | 88.5 | 327 | 2 | 215.5 | 349 | 0.7
3 | SEQ ID NO: 26: mts-siRNA sequence aligning to cDNA SEQ ID NO: 17 (CGCATGTCACATCGCCGTCCTC; expressed or natural sequence) | 10 | 104 | 3.8 | 55.5 | 175.7 | 3.8
4 | SEQ ID NO: 86: mts-siRNA sequence aligning to cDNA SEQ ID NO: 22 (CAAGGCAAGAAGGTGCTTGTTGTC; expressed or natural sequence) | 3 | 256.5 | 3 | 173.5 | 241.7 | 2.4
5 | SEQ ID NO: 72: mts-siRNA sequence aligning to cDNA SEQ ID NO: 22 (GGCCTCCCTTCCCTATGGTAGCC; expressed or natural sequence) | 332.5 | 530 | 233.3 | 323.5 | 325.7 | 1324.8
6 | SEQ ID NO: 24: mts-siRNA sequence aligning to cDNA SEQ ID NO: 17 (ATCACCATGCACGGTCGT; expressed or natural sequence) | 16 | 174 | 3 | 104.5 | 322 | 7.7
7 | SEQ ID NO: 65: mts-siRNA sequence aligning to cDNA SEQ ID NO: 21 (CGAATTGATTCCACCCATTCC; expressed or natural sequence) | 444.5 | 454.5 | 12 | 811.5 | 260.3 | 5.8
8 | SEQ ID NO: 79: mts-siRNA sequence aligning to cDNA SEQ ID NO: 22 (CAAGGCAAGAAGGTGCTTGTTGTCC; expressed or natural sequence) | 5 | 290.5 | 2 | 197.5 | 269.3 | 1.9
9 | SEQ ID NO: 39: mts-siRNA sequence aligning to cDNA SEQ ID NO: 18 (CATCGACCAATGACATTCCCTC; expressed or natural sequence) | 16 | 1514.5 | 1.5 | 442.5 | 2157.3 | 0.6
10 | SEQ ID NO: 67: mts-siRNA sequence aligning to cDNA SEQ ID NO: 21 (CCTATCTAGTGTATGACCAAT; expressed or natural sequence) | 123.5 | 107 | 4.3 | 216 | 62 | 3.3
11 | SEQ ID NO: 44: mts-siRNA sequence aligning to cDNA SEQ ID NO: 19 (TTGGCGTGAAAGCTCGAGTGCTCC; expressed or natural sequence) | 15.5 | 1443.5 | 6.3 | 756 | 1340 | 1.8
12 | SEQ ID NO: 49: mts-siRNA sequence aligning to cDNA SEQ ID NO: 19 (TACTACTACTCCCTTCTCGG; expressed or natural sequence) | 57.5 | 867 | 55.3 | 340 | 1241.7 | 16.3
13 | SEQ ID NO: 71: mts-siRNA sequence aligning to cDNA SEQ ID NO: 22 (AGCTATCGATTCCCTAAGTGCCA; expressed or natural sequence) | 46 | 1943.5 | 2.3 | 1125.5 | 2380 | 1.6
14 | SEQ ID NO: 70: mts-siRNA sequence aligning to cDNA SEQ ID NO: 22 (CATGCACTGGTGAGTCACTGTTG; expressed or natural sequence) | 3 | 873 | 4 | 56.5 | 694 | 1.8
15 | SEQ ID NO: 84: mts-siRNA sequence aligning to cDNA SEQ ID NO: 22 (AAGAAGGTGCTTGTTGTC; expressed or natural sequence) | 0 | 20 | 1 | 13 | 35.7 | 4.4
16 | SEQ ID NO: 27: mts-siRNA sequence aligning to cDNA SEQ ID NO: 17 (CGGACATTTGCAGTTCTATGGT; expressed or natural sequence) | 73 | 405.5 | 1 | 377.5 | 581.7 | 1.1

Source: US20170029841A1, “METHODS AND COMPOSITIONS FOR SELECTIVE REGULATION OF PROTEIN EXPRESSION” (priority 2015, published 2017)
